Reference: PubChem BioAssay AID1645848
≈ marks a conversion by molar mass, not a printed value.

conditions: buffer; pH 7.4; 6.0 h; 150.0 µM

| solubility kinetic [µg/mL] | Compound |
| --- | --- |
| < 1 | COc1cccc(CNc2ccc(S(=O)(=O)Nc3ccc4ccccc4c3)cc2)c1O |
| > 58 | CCOc1ccc(CCNC(=O)c2ccnn2Cc2ccccn2)cc1OCC |
| < 1 | COc1ccc(-c2[nH]nc3ncc(-c4ccc(CO)cc4)nc23)cc1F |
| < 1 | COCCNCc1ccc(-c2cc3nccc(Oc4ccc(NC(=S)NC(=O)Cc5ccc(F)cc5)cc4F)c3s2)nc1 |
| < 1 | COc1ccccc1NC(=O)c1oc2ccccc2c1NC(=O)Cc1cccs1 |
| 16.7 (≈ 30.7 µM) | CNC1CCC(N(Cc2ccc(OC)c(-c3ccc(C#N)cc3)c2)C(=O)c2sc3ccccc3c2Cl)CC1 (centres undefined) |
| 1.06 (≈ 2.48 µM) | COc1ccc(C2c3[nH]c4ccc(OC)cc4c3CCN2C(=O)Nc2ccccc2)cc1 (centres undefined) |
| > 100 | CC(=O)N1CCN(c2ccc(OCc3nn(C)c(C)c3-c3cccc4c(CCCOc5cc(C)c(Cl)c(C)c5)c(C(=O)O)n(Cc5cccnc5)c34)cc2)CC1 |
| < 1 | Cc1ccccc1C(=O)n1ccc2cc(-c3nc(NC(=O)Cc4ccc5c(c4)OCO5)sc3C)ccc21 |
| < 1 | COc1ccc(NC(=O)c2ccccc2)cc1S(=O)(=O)Nc1ccc(Br)cc1 |
| < 1 | O=C(Nc1ccc2oc(-c3cccnc3)nc2c1)c1ccc(-c2ccccc2)o1 |
| 4.29 (≈ 9.47 µM) | COc1cccc(CN2CCCC(c3nc(-c4ccncc4)ncc3-c3ccccc3)C2)c1O (centres undefined) |
| < 1 | CC(=O)c1c(C)[nH]c(C(=O)Nc2cccc(S(=O)(=O)Nc3ccc(Br)c(F)c3)c2)c1C |
| < 1 | Cc1ccc(NC2=C(c3ccc(C(F)(F)F)cc3)C(=O)c3ccccc32)cc1C |
| < 1 | Cc1ccc(-c2csc(NC(=O)c3ccncc3NS(=O)(=O)c3ccc(C)cc3)n2)cc1 |
| < 1 | O=S(=O)(Nc1cccc2ccccc12)c1ccc(NCc2ccc(Br)cc2O)cc1 |
| 20 (≈ 42.4 µM) | O=C(Nc1nc(-c2ccccc2)cs1)c1ccncc1NS(=O)(=O)c1ccccc1Cl |
| < 1 | NC(=O)c1cccc(-c2cc(Nc3ccc(OC(F)(F)F)cc3)ncn2)c1 |
| 1.77 (≈ 6.57 µM) | O=C(Nc1cccc(F)c1)c1cc(-c2ccc[nH]2)n[nH]1 |
| < 1 | CNc1cc(-c2nc(Nc3ccc(F)c(F)c3)c3ccccc3n2)ccn1 |
| < 1 | COc1ccc(NC(=O)c2c(C)cccc2C)cc1S(=O)(=O)Nc1ccc(Br)cc1 |
| < 1 | COc1ccc(-c2cc(-c3ccccc3)nc(SCC(=O)Nc3ccccc3C)c2C#N)cc1 |

| solubility kinetic [µg/mL] | Compound |
| --- | --- |
| 33.1 (≈ 73.7 µM) | CC(=O)Nc1ccc(CN2CCc3nc(C(C)C)nc(-c4ccc(Cl)cc4)c3CC2)cc1 |
| 2.53 (≈ 6.67 µM) | O=[S+]([O-])(Nc1nccs1)c1ccc(NCc2cccc(Cl)c2)cc1 |
| < 1 | Cn1ccc2c(C(=O)NCc3cccnc3)nc(-c3ccccc3C#N)cc21 |
| < 1 | CCOc1ccc(CCNC(=O)c2cc3sccc3n2Cc2ccccc2)c(F)c1OCC |
| 24.5 (≈ 53.7 µM) | COc1ccc(OC)c(-c2cc(C(=O)N3CCN(c4ncccn4)CC3)c3ccccc3n2)c1 |
| > 64 | Cc1ccc(S(=O)(=O)Nc2cnccc2C(=O)Nc2ccc(-c3nn[nH]n3)cc2)cc1 |
| < 1 | N#Cc1cnccc1-c1nc(Nc2ccc(F)c(F)c2)c2ccccc2n1 |
| < 1 | O=C(Nc1ccccc1C(=O)Nc1cccc(C(F)(F)F)c1)c1ccccc1 |
| < 1 | COc1cccc(CNc2ccc(S(=O)(=O)Nc3cccc(-c4ccccc4)c3)cc2)c1O |
| < 1 | Cc1ccc(OCCn2c(CCNC(=O)c3ccccc3Br)nc3ccccc32)cc1 |
| < 1 | CCOc1ccccc1C(=O)Nc1ccccc1C(=O)Nc1cccc(C(F)(F)F)c1 |
| < 1 | CC1=C(C(=O)Nc2ccccc2)C(c2ccccc2Cl)N=C(Nc2nc3ccccc3o2)N1 (centres undefined) |
| < 1 | Cc1ccc(C)c(NC2=C(c3ccc(C(F)(F)F)cc3)C(=O)c3ccccc32)c1 |
| > 92 | CC(=O)NCCNC(=O)c1ccc(-c2ncc3cnc(-c4cccc(F)c4)cn23)cc1 |
| 56.1 (≈ 112 µM) | CC(=O)Nc1ncc(S(=O)(=O)Nc2cnccc2C(=O)Nc2nc(-c3ccccc3)cs2)s1 |
| < 1 | Cc1ccc(S(=O)(=O)Nc2cc(C)ccc2C(=O)Nc2nc(-c3ccccc3)cs2)cc1 |
| 0.578 (≈ 1.11 µM) | Cc1ccc(S(=O)(=O)Nc2cnccc2C(=O)Nc2nc(-c3ccc(Cl)c(Cl)c3)cs2)cc1 |
| < 1 | Cc1ccc(S(=O)(=O)Nc2cncc(C(=O)Nc3nc(-c4ccccc4)cs3)c2)cc1 |
| < 1 | O=C(Nc1ccc(Cl)cc1)C(NS(=O)(=O)c1cccs1)c1ccccc1 (centres undefined) |
| < 1 | CC1=Nc2cc(C(=O)NCCc3ccccc3)ccc2Sc2c(C)ccc(C)c21 |
| < 1 | COc1c(NS(=O)(=O)c2ccc(C)cc2)cccc1C(=O)Nc1nc(-c2ccccc2)cs1 |

The next lines start with the molecule.

| Compound | solubility kinetic [µg/mL] |
| --- | --- |
| O=C(O)Cn1c(C(=O)Nc2nc(-c3ccccc3Cl)cs2)cc2ccccc21 | > 61 |
| CCOC(=O)C1CCN(C(=O)Nc2ccc3c(c2)nc(C)n3C)CC1 | > 51 |
| CCOC(=O)c1ccnc2cc(C(OCCN3CCCCC3)c3ccccc3Cl)sc12 (centres undefined) | 56.3 (≈ 123 µM) |
| COc1ccccc1-c1[nH]nc2ncc(-c3ccc(C)cc3)nc12 | < 1 |
| COc1cc(C(=O)NC2CCCc3c2[nH]c2ccccc32)cc(OC)c1OC (centres undefined) | 7.26 (≈ 19.1 µM) |
| Cc1ccccc1C(C(=O)NC1CCCCC1)N(C(=O)Cn1ccnc1C)c1cccc(F)c1 (centres undefined) | 3.13 (≈ 6.76 µM) |
| CCn1cc(C(=O)N2CCN(c3cccc(Cl)c3)CC2)c2cc(OC)c(OC)cc2c1=O | 3.32 (≈ 7.27 µM) |
| Cn1ccc2c(C(=O)NCC3CCC(=O)N3)nc(-c3ccccc3C#N)cc21 (centres undefined) | 52.4 (≈ 140 µM) |
| Cc1cc(C)nc(NC(=S)N2CCN(c3cccc([N+](=O)[O-])c3)CC2)c1 | 4.04 (≈ 10.9 µM) |
| CCN(CC)CCCNC(=O)c1oc2c(c1C)-c1nn(Cc3ccc(Cl)cc3)cc1CC2 | > 67 |
| CCN(CC)c1ccc(Nc2nc(Cl)ncc2Br)cc1 | 4.94 (≈ 13.9 µM) |
| O=S(=O)(c1ccccc1)N1CCCCC1CCc1ccccc1 (centres undefined) | 4.39 (≈ 13.3 µM) |
| Cc1ccc(NS(=O)(=O)c2ccc3c(c2)NC(=O)CO3)cc1C | 7.82 (≈ 23.5 µM) |
| CN(C)C(=O)c1nc(-c2ccc(Cl)nc2)c2ccccn12 | 27.6 (≈ 91.8 µM) |
| NC(=O)C1CCN(c2ncc(-c3cccc(N4CCCCC4)c3)s2)CC1 | 32.9 (≈ 88.8 µM) |
| COc1ccc2[nH]c3c(c2c1)CCNC31CCN(S(=O)(=O)c2c(C)noc2C)CC1 | 7.38 (≈ 17.1 µM) |
| NC(=O)C1CCN(c2nc(-c3ccccc3-c3ccccc3)cs2)CC1 | 30.6 (≈ 84.3 µM) |
| Cc1cccc(-c2cc(NC(=O)c3ccccc3C)n(-c3ccccc3)n2)c1 | < 1 |
| Cc1ccc(C)c(SC2=NS(=O)(=O)c3ccccc32)c1 | < 1 |

| Compound | solubility kinetic [µg/mL] |
| --- | --- |
| NC(=O)C1CCN(c2nc(-c3ccc(Br)cc3)cs2)CC1 | < 1 |
| CCCCN1CCC[C@H]1CNC(=O)c1cc(C#N)c2ccccc2c1OC | 22.2 (≈ 60.6 µM) |
| CC1=C(C(=O)NC2CCCCC2)C(c2ccccc2Br)N=C(Nc2nc3ccccc3o2)N1 (centres undefined) | < 1 |
| COc1cc(Cl)cn2c(-c3cccc(NC4CNC4)n3)cnc12 | > 49 |
| Cn1ccc2cc(-c3csc(N4CCC(C(N)=O)CC4)n3)ccc21 | 32.9 (≈ 96.7 µM) |
| CCc1cccc(NC(=O)c2cc(-c3ccc[nH]3)n[nH]2)c1 | 4.59 (≈ 16.4 µM) |
| CC(Nc1nc(N2CCN(S(C)(=O)=O)CC2)nc2ccccc12)c1ccccc1 (centres undefined) | 11 (≈ 26.8 µM) |
| O=C(NC1CC1)c1ccc(CSCc2ccccc2Cl)o1 | > 47 |
| CCC(CC)C(=O)NC[C@@H]1C=C(C)[C@H](Cc2nc3c(C)cccc3[nH]2)C[C@H]1C(C)C | 4.34 (≈ 10.6 µM) |
| COc1ccc(OC)c(-n2c3c(cc(-c4nc(-c5ccc(Cl)cc5)cs4)c2=O)C(=O)CC(C)(C)C3)c1 | < 1 |
| COc1ccc(NC(=O)c2[nH]c(C)c(C(C)=O)c2C)cc1S(=O)(=O)N1CCCCCC1 | 3.11 (≈ 6.94 µM) |
| CC(=O)NCc1ccc(-c2csc(Nc3cccc(C)c3)n2)o1 | 29.8 (≈ 91.1 µM) |
| CN(C)c1cccc(-c2cnc(N3CCC(c4ncc[nH]4)CC3)s2)c1 | 32.7 (≈ 92.5 µM) |
| Cn1cnc(S(=O)(=O)Nc2cnccc2C(=O)Nc2nc(-c3ccccc3)cs2)c1 | > 65 |
| Cc1nn(CCc2nc(-c3ccccc3)cs2)c2[nH]c(=O)cc(C(F)(F)F)c12 | 1.26 (≈ 3.12 µM) |
| Cc1ccc(S(=O)(=O)Nc2cc(Cl)c(Cl)cc2C(=O)Nc2nc(-c3ccccc3)cs2)cc1 | < 1 |
| Cc1noc(C)c1-c1ccc(-c2cc(C(N)=O)c(NC(N)=O)s2)c(O[C@H]2CCNC2)c1 | 38.5 (≈ 87.3 µM) |
| O=C1CCCC2=C1C(c1ccccc1Cl)N=C(Nc1nc3ccccc3o1)N2 (centres undefined) | < 1 |
| CCN1CCCC1CNC(=O)c1cc(S(=O)(=O)CC)c(N)cc1OC (centres undefined) | 36.2 (≈ 98.1 µM) |

| Compound | solubility kinetic [µg/mL] |
| --- | --- |
| O=C1Nc2ccc(I)cc2/C1=C/c1cc(Br)c(O)c(Br)c1 | < 1 |
| CC(C)(C)n1nc(-c2ccc(Cl)cc2)c2c(N)ncnc21 | < 1 |
| NC(=O)C1CCN(c2ncc(-c3ccc(Cl)cc3)s2)CC1 | < 1 |
| COC(=O)CNC(=O)c1nc(-c2ccc(Cl)nc2)c2cnccn12 | > 61 |
| CCc1ccc2oc(NC3=NC(c4[nH]ncc4Cl)C4=C(CCCC4=O)N3)nc2c1 (centres undefined) | < 1 |
| COc1ccnc(NC(=S)N2CCN(c3ncc(C(F)(F)F)cc3Cl)CC2)c1 | 1.24 (≈ 2.86 µM) |
| CSc1ccc(/C=C/c2nc3ccccc3n2S(=O)(=O)c2cccc(Cl)c2)cc1 | < 1 |
| O=C1c2ccccc2C2=Nc3ccccc3SC(c3ccccc3F)C12 (centres undefined) | < 1 |
| COc1ccc(C(=O)NC2CCCc3c2[nH]c2c(Cl)cccc32)cc1OC (centres undefined) | 1.14 (≈ 2.95 µM) |
| O=c1n(-c2ccc(Cl)cc2)nc2n1CCN(Cc1ccc(C(F)(F)F)cc1)C2 | < 1 |
| NC(=O)C1CCN(c2nc(-c3ccccc3Br)cs2)CC1 | > 54 |
| O=C(c1ccc2c(c1)ncn2-c1cccc(C(F)(F)F)c1)N1CCCCC1 | > 55 |
| N#Cc1ccccc1CSc1nc2ncc(Br)cc2[nH]1 | 1.09 (≈ 3.16 µM) |
| NC(=O)C1CCN(c2nnc(-c3ccc4c(c3)OCCCO4)s2)CC1 | 9.84 (≈ 27.3 µM) |
| Cc1ccc(-n2ncc3c(NCCCn4ccnc4)ncnc32)cc1Cl | 4.07 (≈ 11.1 µM) |
| COCc1cc(C)nc(SCC(=O)c2ccc(O)c(O)c2)c1C#N | 13.2 (≈ 38.2 µM) |
| CCCc1cc(C)[nH]c(=O)c1CNC(=O)c1cc(-c2ccnc(N3CCN(C)CC3)c2)cc2c1cnn2C(C)C | 64 (≈ 118 µM) |
| NC(=O)C1CCN(c2nc(-c3ccc4c(c3)OCCCO4)cs2)CC1 | 34.7 (≈ 96.4 µM) |
